Reference: patent publication EP0806480A2, “Frenolicin gene cluster” (F. HOFFMANN-LA ROCHE AG, priority 1996, dated 1997)

Test system: Streptomyces and other bacteria
Test: Toxicity of frenolicins to bacteria (comparative statement, no method described)
Assay type: cell-based
Details: relative ranking among the frenolicins; qualitative only

| Compound | toxic to Streptomyces and other bacteria |
| --- | --- |
| frenolicin B [reference compound] | most toxic |
| frenolicin epoxide | even less so |
| CCC[C@H]1O[C@H](CC(=O)O)CC2=C1C(=O)c1c(O)cccc1C2=O [deoxyfrenolicin] | less toxic |
